Tests used:
[1] = Ocular tolerability in animal species compared to compounds of WO 2004/085430; assay type: in vivo; settings: compared to compounds disclosed in WO 2004/085430 (i.e., Example 2)
[2] = Eye closure after ocular dosing; assay type: in vivo, New Zealand White rabbits; settings: versus Example 2 of WO 2004/085430
[3] = Ocular adverse effects (conjuctival hyperemia, partial eye closure, etc.); assay type: in vivo, Cynomolgus Monkeys; settings: versus Example 2 of WO 2004/085430
[4] = Vehicle panel-controlled 5 day ocular tolerability study (topical, bilateral, b.i.d); assay type: in vivo, Dutch-Belted rabbits; settings: 5 days, 2.2 μM (25 μL) ophthalmic solution
EP4 mRNA in bone tissue = assay: EP4 mRNA levels in vivo in bone tissue after systemic PGE2; settings: five-week-old male rats, injected 3-6 mg/Kg
From the text: For mRNA localization experiments, 5-week old Sprague-Dawley rats (Charles River) are euthanized by CO2, their tibiae and calvariae are excised, cleaned of soft tissues and frozen immediately in liquid nitrogen. […] Animals are euthanized at several time points post-injection and their tibiae and calvariae, as well as samples from lung and kidney tissues are frozen in liquid nitrogen.
(§1) Total RNA is extracted from the tibial metaphysis or diaphysis and calvaria using a guanidinium isothiocyanate-phenol-chloroform method after pulverizing frozen bone samples by a tissue homogenizer. See P. Chomczynski et al., Single-step method of RNA isolation by acid guanidium thiocyanate-phenol-chloroform extraction., Analyt Biochem, 162, 156-159 (1987), which is incorporated by reference herein in its entirety. RNA samples ([…]) are separated on 0.9% agarose/formaldehyde gels and transferred onto nylon membranes (Boehringer Mannheim, Germany). Membranes are prehybridized in Hybrisol I (Oncor, Gaithersburg, Md.) and 0.5 mg/ml sonicated salmon sperm DNA (Boehringer) at 42° C. for 3 hours and are hybridized at 42° C. with rat EP2 and mouse EP4 cDNA probes labeled with [^32P]-dCTP (Amersham, Buckinghamshire, UK) by random priming using the rediprime kit (Amersham). […]

[5] = test system: EP4 mRNA in bone marrow cells; assay: In situ hybridization, localization of EP4 expression in bone; assay type: in vivo; settings: single anabolic dose, versus vehicle-injected rats
Protocol: (§2) For mRNA localization experiments, 5-week old Sprague-Dawley rats (Charles River) are euthanized by CO2, their tibiae and calvariae are excised, cleaned of soft tissues and frozen immediately in liquid nitrogen. For EP4 regulation experiments, 6-week old rats are given a single injection of either vehicle (7% ethanol in sterile water) or an anabolic dose of PGE2 (Cayman Chemical, Ann Arbor, Mich.), 3-6 mg/kg in the same vehicle) intraperitoneally. Animals are euthanized at several time points post-injection and their tibiae and calvariae, as well as samples from lung and kidney tissues are frozen in liquid nitrogen.
Frozen tibiae are sectioned coronally at […] thickness and sections are mounted on charged slides (Probe On Plus, Fisher Scientific, Springfield, N.J.) and are kept at −70° C. until hybridization. cRNA probes are labeled with ^35S-UTPgS (ICN, Costa Mesa, Calif.) using a Riboprobe II kit (Promega Madison, Wis.). Hybridization is performed overnight at 50° C. See M. Weinreb et al., Different pattern of alkaline phosphalase, osteopontin and osteocalcin expression in developing rat bone visualized by in-situ hybridization, J. Bone Miner Res., 5, 83′-842 (1990) and D. Shinar et al., Expression of alphav and beta3 integrin subunits in rat osteoclasts in situ, J. Bone Miner. Res., 8, 403-414 (1993), which are both incorporated by reference herein in their entirety. […]

EP2 mRNA in bone tissue = assay: EP2 mRNA in vivo in bone tissue after systemic PGE2; settings: rats, systemic administration
Protocol: as §2
Total RNA is extracted from the tibial metaphysis or diaphysis and calvaria using a guanidinium isothiocyanate-phenol-chloroform method after pulverizing frozen bone samples by a tissue homogenizer. See P. Chomczynski et al., Single-step method of RNA isolation by acid guanidium thiocyanate-phenol-chloroform extraction., Analyt Biochem, 162, 156-159 (1987), which is incorporated by reference herein in its entirety. RNA samples ([…]) are separated on 0.9% agarose/formaldehyde gels and transferred onto nylon membranes (Boehringer Mannheim, Germany). […]

EP2 mRNA in RP-1 cells = assay: EP2 mRNA expression (Northern blot) in RP-1 cells; assay type: cell-based, rat
Protocol: (§3) RP-1 periosteal cells are spontaneously immortalized from primary cultures of periosteal cells from tibae of 4-week old Sprague-Dawley rats and are cultured in DMEM (BRL, Gaithersburg, Md.) with 10% fetal bovine serum (JRH Biosciences, Lenexa, Kans.).
as §1, with “(Amersham). After hybridization, membranes are washed 4 times in 2×SSC+0.1% SDS at room temperature for a total of 1 hour and once with 0.2×SSC+0.1% SDS at 55° C. for 1 hour and then exposed to Kodak XAR 2 film at −70° C. using intensifying screens.” for “(Amersham).”

RCT-3 cells = assay: Intracellular cAMP in osteoblastic cells; assay type: cell-based, rat
Protocol: (§4) RCT-1 and RCT-3 are clonal cell lines immortalized by SV40 large T antigen from cells released from fetal rat calvair by a cmbination collagenase/hyaluronidase digestion. RCT-1 cells, derived from cells released during the first 10 minutes of digestion (fraction I), are cultured in RPMI 1640 medium (BRL) with 10% fetal bovine serum and 0.4 mg/ml G418 (BRL). These cells differentiate and express osteoblastic features upon retinoic acid treatment. RCT-3 cells, immortalized from osteoblast-enriched fraction III cells, are cultured in F-12 medium (BRL) with 5% Fetal bovine serum and 0.4 mg/ml G418. TRAB-11 cells are also immortalized by SV40 large T antigen from adult rat tibia and are cultured in RPMI 1640 medium with 10% FBS and 0.4 mg/ml G418. ROS 17/2.8 rat osteosarcoma cells are cultured in F-12 containing 5% FBS. Osteoblast-enriched (fraction III) primary fetal rat calvaria cells are obtained by collagenase/hyaluronidase digestion of calvariae of 19 day-old rat fetuses. See Rodan et al., Growth stimulation of rat calvaria osieoblastic cells by acidic FGF, Endocrinology, 121, 1919-1923 (1987), which is incorporated by reference herein in its entirety. Cells are released during 30-50 minutes digestion (fraction III) and are cultured in F-12 medium containing 5% FBS. […]

TRAB-11 cells = assay: Intracellular cAMP in osteoblastic cells; assay type: cell-based, rat
Protocol: as §4

EP4 mRNA in RCT-3 cells = assay: EP4 mRNA levels (Northern blot) in RCT-3 cells; assay type: cell-based, rat
Protocol: as §4

[6] = test system: EP4 mRNA in RP-1 periosteal cells; assay: EP4 mRNA levels (Northern blot) in RP-1 periosteal cells; assay type: cell-based, rat; settings: 10^−6 M
Protocol: as §3
as §1, with “(Amersham). After hybridization, membranes are washed 4 times in 2×SSC+0.1% SDS at room temperature for a total of 1 hour and once with 0.2×SSC+0.1% SDS at 55° C. for 1 hour and then exposed to Kodak XAR 2 film at −70° C. using intensifying screens.” for “(Amersham).”

ROS 17/2.8 cells = assay: Intracellular cAMP in osteoblastic cells; assay type: cell-based; settings: ROS 17/2.8 rat osteosarcoma cells
Protocol: as §4

SMILES | ocular tolerability [1] | improvement in eye closure [2] | improvement in ocular adverse effects (conjuctival hyperemia, partial eye closure, etc.) [3] | drug treatment related findings [4] | effect on EP4 mRNA levels in the tibial diaphysis (EP4 mRNA in bone tissue) | time of peak EP4 mRNA levels in the tibial diaphysis after injection (EP4 mRNA in bone tissue) | expression of EP4 in bone marrow cells [5] | induction of EP2 mRNA in bone tissue (EP2 mRNA in bone tissue) | EP2 mRNA expression before or after treatment (EP2 mRNA in RP-1 cells) | effect on intracellular cAMP (RCT-3 cells) | effect on intracellular cAMP (TRAB-11 cells) | effect on EP4 mRNA levels (EP4 mRNA in RCT-3 cells) | effect on EP4 mRNA levels [6] | time of peak EP4 mRNA levels after treatment [6] | effect on intracellular cAMP (ROS 17/2.8 cells)
CC(C)OC(=O)c1ccc(CCCN2C(=O)OCC[C@@H]2/C=C/[C@@H](O)C(F)(F)c2cccc(Br)c2)s1 [Example 1, Isopropyl 5-(3-{(4R)-4-[(1E,3R)-4-(3-bromophenyl)-4,4-difluoro-3-hydroxybut-1-en-1-yl]-2-oxo-1,3-oxazinan-3-yl}propyl)thiophene-2-carboxylate] | improved ocular tolerability | 5 fold | 3-5 fold | no drug treatment related findings | – | – | – | – | – | – | – | – | – | – | –
CCCCC[C@H](O)/C=C/[C@H]1[C@H](O)CC(=O)[C@@H]1C/C=C\CCCC(=O)O [PGE2] | – | – | – | – | rapidly increased EP4 mRNA levels | 2 h | increased the expression of EP4 | does not induce EP2 mRNA | not expressed | markedly induced | markedly induced | no effect on EP4 mRNA levels | rapidly increases EP4 mRNA levels | 2 h | no effect

From US20090105234A1, “EP4 Receptor Agonist, Compositions and Methods Thereof” (priority 2005, published 2009)
